Reference: US10183915B2, “Axially chiral isomers, and preparation methods therefor and pharmaceutical uses thereof” (MEDSHINE DISCOVERY INC., priority 2015, dated 2019)
Read-outs that look alike come from different tables or passages of the source.

Key:
[1] = In vivo pharmacokinetic study in male Sprague-Dawley rats (IV and PO); set-up: species or system Sprague-Dawley rat; settings: for MRT inf: read-out: MRT0-inf; for Bioavailability: PO 10 mpk vs IV 2 mpk
Protocol: Test 6: In Vivo Pharmacokinetic Study of the Test Compounds in Rats
To study the pharmacokinetic behavior of the compounds in rats and to evaluate their pharmacokinetic characteristics, their concentrations in plasma were determined by LC/MS/MS.
Appropriate amount of sample was added to a certain amount of pure water, the pH were adjusted to 7-8, to prepare to be 1 mg/mL (filtered and clarified) and 2 mg/mL (with a few particles of suspension) for IV and PO administration. • 2.4 Administration • 18 male SD rats were randomly assigned to 6 treatment groups, 3 rats in each group. Male rats were administrated IV and PO respectively after fasting overnight. The IV dosage was 2 mg/kg, the dose volume was 2 mL/kg, the PO dosage was 10 mg/kg, and the dose volume was 5 mL/kg. 3. Experimental Procedure
For IV group, 250 μL blood samples were collected before administration, and 0.083, 0.25, 0.5, 1, 2, 4, 8, 24 hours after administration, and placed in K2-EDTA anticoagulant tube, centrifuged at 3000 rpm for 15 minutes, plasma was separated, stored at −80° C. For PO Group, blood samples were collected before administration, and 0.25, 0.5, 1, 2, 4, 8, 24 hours after administration, and the other operations were the same as group IV. The content of the test compounds in the plasma of rats after administration of IV and PO were determined by LC/MS/MS method. The linear range of the assay was 6.00-18000 nM, and the lower limit of quantification was 6 nM; the plasma samples were analyzed by pretreatment with precipitated proteins.

[2] = Stability of solid compounds in ambient temperature (15° C., nitrogen cabinet, dark; SFC chiral purity); format: physicochemical; settings: for Enantiomer Excess of the Compound: solid
Protocol: Test 2: Evaluation of the Stability of Solid Compounds in Ambient Temperature.
20 mg of test compound was placed into 5 mL brown transparent sealed container with stopper and stoned in the nitrogen cabinet (15° C.) in the dark. After the preset storage time, about 2 mg of test compound was accurately weighed, added into ethanol to prepare 1 mg/mL ethanol solution. The purity and chiral purity of the compound was detected by high performance liquid chromatography (HPLC) or LC-MS (LCMS) and supercritical fluid chromatography (SFC).

[3] = Stability of compounds in ethanol solutions (heated; SFC chiral purity); format: physicochemical; settings: for Enantiomer Excess of Compound: ethanol solution
Text: Test 3: Evaluation of the Stability of Compounds in Ethanol Solutions.
(§1) An appropriate amount of test compound was accurately weighed, added into ethanol to obtain an ethanol solution. The ethanol solution of the compound was stirred in a heated oil bath. At the end of the test, the purity and chiral purity of the compound was detected by high performance liquid chromatography (HPLC) or LC-MS (LCMS) and supercritical fluid chromatography (SFC).

[4] = Stability of compounds in DMSO solutions (heated; SFC chiral purity); format: physicochemical; settings: for Enantiomer Excess of Compound: DMSO solution
Protocol: Example 4: Evaluation of the Stability of Compounds in DMSO Solutions
as §1, with “DMSO” for “ethanol”, “a DMSO” for “an ethanol”, “test, a sample amount of the DMSO solution was diluted with ethanol and” for “test,”

[5] = Stability of compounds in human plasma; format: in vitro ADME; settings: for Recovery (% remaining): human plasma
Protocol: (§2) Test 5: Evaluation of the Stability of Compounds in Rat Plasma and Human Plasma
(§3) 2. Experimental Procedures and Methods • 2.1 Prior to the experiment, the frozen plasma stored at −40° C. was thawed at room temperature and incubated in a 37° C. water bath for 5-10 min; centrifuged at 4000 rpm for 5 min, to remove impurities and lipids in the plasma. Measured the value of pH, if required, adjusted it to 7.4±0.1. • 2.2 Prepared 400 μM intermediate solution by diluting 4 μL of the working solution (10 mM) with 96 μL DMSO. • 2.3 Preparation of incubation samples: Remove 3 μL of intermediate solution (400 μM) to mix with 597 μL of blank plasma to achieve 2 μM of final concentration. Incubate each time point samples (0 min, 10 min, 30 min, 60 min, 120 min, in duplicate) at 37° C. in water bath. • 2.4 An aliquot of 100 μL samples of the final spiked plasma for each time point were removed to sample collected plates, added 400 μL of stop solution (200 ng/mL Tolbutamide plus 20 ng/mL Buspirone in 50% ACN/MeOH) to precipitate protein. Mixed thoroughly. • 2.5 Centrifuged each plate at 4,000 rpm for 20 min. Transfered an aliquot of supernatant (100 μL) from each well to sample plate and mixed with 200 μL ultra pure water. Shaked the plate at 800 rpm for about 10 min before submitting to LC-MS/MS analysis. 3. Experimental Data Analysis
(§4) The ratio of the peak area to the internal standard peak area was used to assess the decrease of the test compound to be measured. The % remaining of the test compound after incubation in plasma was calculated using following equation: % Remaining=100×(PAR at appointed incubation time/PAR at T0 time)
(§5) wherein PAR is the peak area ratio of analyte versus internal standard (IS)
(§6) The appointed incubation time points are: 0 min, 10 min, 30 min, 60 min, 120 min; T0: Samples prior to incubation.

[6] = Stability of compounds in SD rat plasma; format: in vitro ADME
Protocol: as §2, §3, §4, §5, §6

[7] = male, Sprague-Dawley, rat, plasma, iv, 2 mg/kg, male SD rats, IV 2 mpk
[8] = male, Sprague-Dawley, rat, plasma, po, 10 mg/kg, male SD rats, PO 10 mpk
[9] = male SD rats, IV 2 mpk, 2 mg/kg
[10] = male SD rats, PO 10 mpk, 10 mg/kg

O=C(O)CSc1nnc(Br)n1-c1ccc(C2CC2)c2ccccc12 (racemic) [(±)-Lesinurad, Lesinurad, reference compound]
clearance ([1]; Sprague-Dawley, rat, plasma, 2 mg/kg, male SD rats, IV 2 mpk): 5.72 ± 1.09 mL/min/kg
AUC0-inf ([1]; Sprague-Dawley, rat, plasma, 2 mg/kg, male SD rats, IV 2 mpk, read-out: AUC0-inf): 14.8 ± 3.15 µM·h
AUC0-inf ([1]; Sprague-Dawley, rat, plasma, 10 mg/kg, male SD rats, PO 10 mpk, read-out: AUC0-inf): 62.5 ± 12.1 µM·h
C0 [1, 7]: 11.6 ± 1.98 µM
half-life [1, 7]: 1.8 ± 0.65 h
MRT inf [1, 7]: 2.21 ± 0.63 h
Vd ([1]; male, Sprague-Dawley, rat, plasma, iv, 2 mg/kg, male SD rats, IV 2 mpk, read-out: Vdss): 0.76 ± 0.29 L/kg
Cmax [1, 8]: 14.5 ± 8.47 µM
half-life [1, 8]: 2.46 ± 0.18 h
Bioavailability ([1]; male, Sprague-Dawley, rat, plasma, po, 10 mg/kg, male SD rats, read-out: Bioavailability): 84.3%
MRT inf [1, 8]: 4.63 ± 1.16 h
Tmax ([1]; male, Sprague-Dawley, rat, plasma, po, 10 mg/kg, male SD rats, PO 10 mpk, read-out: Tmax): 2.33 ± 1.53 h

O=C(O)CSc1nnc(Br)n1-c1ccc(C2CC2)c2ccccc12 (single isomer, unassigned) [(−)-Lesinurad]
Enantiomer Excess of the Compound ([2]; storing time 0 day): 96.5%
Enantiomer Excess of the Compound ([2]; storing time >80 days): Unchanged
Stability of the solid powder (SFC purity) ([2]; storing over 80 days): very stable
Enantiomer Excess of Compound ([3]; 37° C., 4 days): Unchanged
Enantiomer Excess of Compound ([3]; 37° C., 7 days): Unchanged
Enantiomer Excess of Compound ([3]; heating time 0 day): 96.5%
Stability in ethanol solutions (SFC purity) ([3]; heating to 37° C. and up to 70° C.): very stable
Enantiomer Excess of Compound ([4]; 80° C., 0 h): 96.5%
Enantiomer Excess of Compound ([4]; 80° C., 2 × 24 h): Unchanged
Enantiomer Excess of Compound ([4]; 80° C., 4 × 24 h): Unchanged
Enantiomer Excess of Compound ([4]; 80° C., 2 h): Unchanged
Enantiomer Excess of Compound ([4]; 80° C., 4 h): Unchanged
Enantiomer Excess of Compound ([4]; 80° C., 8 h): Unchanged
Enantiomer Excess of Compound ([4]; 80° C., 24 h): Unchanged
Enantiomer Excess of Compound ([4]; 120° C., 0 h): 96.5%
Enantiomer Excess of Compound ([4]; 120° C., 2 × 24 h): Unchanged
Enantiomer Excess of Compound ([4]; 120° C., 4 × 24 h): Unchanged
Enantiomer Excess of Compound ([4]; 120° C., 2 h): Unchanged
Enantiomer Excess of Compound ([4]; 120° C., 4 h): Unchanged
Enantiomer Excess of Compound ([4]; 120° C., 8 h): Unchanged
Enantiomer Excess of Compound ([4]; 120° C., 24 h): Unchanged
Enantiomer Excess of Compound ([4]; 160° C., 0 h): 96.5%
Enantiomer Excess of Compound ([4]; 160° C., 8 h): Unchanged
Stability in DMSO solutions (SFC purity) ([4]; heating to 80° C., 120° C. and up to 160° C.): very stable
Stability after co-incubation with human plasma ([5]; 2 hours): very stable
Recovery (% remaining) ([5]; 2 μM, 37° C., 30 min): 100.4%
Recovery (% remaining) ([5]; 2 μM, 37° C., 60 min): 99.6%
recovery at 120 min, 2 μM ([5]; human, plasma, pH 7.4, human plasma, 2 μM, 37° C., 120 min, read-out: Recovery (% remaining)): 101%
Stability after co-incubation with SD-rat plasma ([6]; 2 hours): very stable
recovery at 0 min, 2 μM ([6]; SD, rat, plasma, pH 7.4, SD rat plasma, 2 μM, 37° C., 0 min, read-out: Recovery (% remaining)): 100%
recovery at 10 min, 2 μM ([6]; SD, rat, plasma, pH 7.4, SD rat plasma, 2 μM, 37° C., 10 min, read-out: Recovery (% remaining)): 102%
recovery at 30 min, 2 μM ([6]; SD, rat, plasma, pH 7.4, SD rat plasma, 2 μM, 37° C., 30 min, read-out: Recovery (% remaining)): 99.9%
recovery at 60 min, 2 μM ([6]; SD, rat, plasma, pH 7.4, SD rat plasma, 2 μM, 37° C., 60 min, read-out: Recovery (% remaining)): 97.9%
recovery at 120 min, 2 μM ([6]; SD, rat, plasma, pH 7.4, SD rat plasma, 2 μM, 37° C., 120 min, read-out: Recovery (% remaining)): 100%
Transformation of the atropisomer in vivo ([1]; SD rats, IV and PO): no transformation was observed
AUC0-inf [1, 9]: 14.419 ± 1.54695 µM·h
C0 [1, 9]: 9.39 ± 3.21 µM
Cl [1, 9]: 5.76 ± 0.59 mL/min/kg
MRT0-inf [1, 9]: 2.16 ± 0.07 h
T1/2 [1, 9]: 1.46 ± 0.03 h
Vdss [1, 9]: 0.75 ± 0.10 L/kg
Bioavailability ([1]; male SD rats): 65.11%
AUC0-inf [1, 10]: 46.94391 ± 11.4987 µM·h
Cmax [1, 10]: 11 ± 3.99 µM
MRT0-inf [1, 10]: 3.92 ± 0.64 h
T1/2 [1, 10]: 2.17 ± 0.10 h
Tmax [1, 10]: 2.33 ± 1.53 h
